Results on eleven compounds are retold here after patent publication US20220193047A1, “METHODS OF ENHANCING RADIOTHERAPY USING FERROPTOSIS INDUCERS AS RADIOSENSITIZERS” (THE TRUSTEES OF COLUMBIA UNIVERSITY IN THE CITY OF NEW YORK, priority 2019, published 2022).

Test [1] deals with HT-1080 cells. Briefly: Cell Titer Glo cell viability assay with radiation. The test is classed as cell-based. Conditions: for Cell viability after radiation (ATP-based luciferase assay): HT-1080, 4 Gy radiation for 24 h. On the procedure: HT-1080 cells were plated at 1,000 cells per well in white 96-well plates (100 uL per well) in technical duplicates. The cells were then treated with vehicle (DMSO), Ferrostatin-1, DFO, Z-VAD-FMK or Necrostatin-1S and incubated overnight. […] After another 24 h, 100 uL of 50% Cell Titer Glo (Promega) 50% cell culture medium was added to each well and incubated at room temperature with shaking for 15 min. Luminescence was measured using a Victor X5 plate reader (PerkinElmer). Experiments were performed three independent times with different passages for each cell line.

Test [2] deals with TM00219 patient-derived xenograft tumors. Briefly: Patient-derived xenograft study in mice (TM00219 lung adenocarcinoma). The test is classed as in vivo. Conditions: 40 mg/kg i.p. daily for 14 days, NSG mice. On the procedure:
The experiment was conducted according to the same protocol as the HT-1080 tumor xenograft study, with the exception that a single dose of radiation (sham or 6 Gy) was delivered to the tumor on day 1 of the experiment.
Finally, the effect of ferroptosis-inducing system xc^− inhibitors, in combination with radiation, was tested on a patient-derived xenograft (PDX) model of lung adenocarcinoma, which is another type of cancer commonly treated with radiation therapy. NSG mice engrafted with a human lung adenocarcinoma tumor (TM00219) were evaluated.
On the technique in general: Xenograft models place foreign cells or tissue in a host animal.

Test [3] relates to HT-1080 cells. In words: Clonogenic assay with Cs-137 gamma radiation, HT-1080. The test is classed as cell-based. Also noted: key to CDI with radiation: CDI = AB/(A×B) of surviving fractions; <1 synergy. Conditions: for CDI with radiation: 5 μM sorafenib, HT-1080; for Enhancement of radiation effect on clonogenic survival: HT-1080, cell death inducer plus radiation; for CDI with 4 Gy IR / CDI with 2 Gy IR: HT-1080 cells, CDI<1 synergy; for CDI with 2 Gy IR: inducer concentration (300 nM IKE, 20 nM RSL3, 1 nM staurosporine, 2 nM doxorubicin, 300 nM rapamycin, 100 ng/mL TNF + 20 μM Z-VAD-FMK + 300 nM birinapant); for Colony formation after radiation alone: HT-1080, 2 or 4 Gy radiation, no ferroptosis inducer. On the procedure:
500 cells were seeded per well in 6-well plates in their respective growth media and incubated overnight. The next day, cells were co-treated with DMSO or compounds and radiation using a Gammacell 40 Caesium-137 irradiator (Theratronics). Plates were monitored every day using a light microscope for formation of colonies in the DMSO-treated wells. When colonies of >50 cells are clearly visible, the growth medium was discarded from all plates. The cells were washed with PBS, then fixed and stained with crystal violet solution (0.05% crystal violet, 1% formaldehyde, 1% methanol in PBS). Colonies were then directly visualized and counted.
We tested their ability to prevent clonogenic growth, along with DMSO-treated controls.
The coefficient of drug interaction (CDI), used to compute interaction between two drugs, was used to quantify synergy between cell death inducers and radiation according to the formula CDI=AB/(A×B), where AB is the surviving fraction of the combination treatment, and A and B are the surviving fractions of the individual treatments.

A further test relates to HT-1080 xenograft tumors. Briefly: HT-1080 tumor xenograft study in mice. Conditions: 40 mg/kg i.p. daily for 14 days.
The subject of test [4] is GSH in HT-1080 xenograft tumors. In words: Reduced glutathione in xenograft tumor tissue.
Description: The cell pellet was resuspended in 100 μl of RIPA buffer and homogenized by pipetting. The lysate was centrifuged at 16,700×g at 4° C. for 15 min, and cleared lysate was used to determine the amount of GSH in the sample. We used the GSH/GSSG ratio detection assay kit (Abcam, #ab138881) and followed the product instructions to determine GSH levels.
The injections were repeated daily for 14 days. […] Tumor size was measured daily using calipers and mouse weight was measured daily. The animal protocols containing all the procedures were approved by Columbia University's IACUC.
For test [5], the system named is reduced glutathione (GSH) in HT-1080 cells. In words: Reduced glutathione measurement in cells. The test is classed as cell-based. Conditions: HT-1080, 6 Gy radiation for 24 hours, vs DMSO, sorafenib alone or radiation alone. On the procedure: Cystine taken up by system xc^− is reduced to cysteine, a building block in the biosynthesis of glutathione. […] Using a fluorometric GSH probe, we observed that treatment with 2 or 6 Gy radiation for 24 hours depleted GSH in a dose-dependent manner in HT-1080 cells (FIG. 2E). […] Indeed, the decrease in colony formation of HT-1080 cells following 2 or 4 Gy radiation was rescued by either glutathione methyl ester or N-acetylcysteine, which is a biological precursor to glutathione (FIG. 9).

For the next test, the system named is cleaved caspase-3. Briefly: Western blot of cleaved caspase-3. The test is classed as cell-based. On the procedure:
1 million cells were seeded in 10 cm dishes and treated with compounds and/or radiation on the next day. […] After quantification by Bradford, samples were mixed with 5×SDS loading buffer and separated by SDS-polyacrylamide gel electrophoresis. After transfer, membranes were blocked for 10 min in Tris-buffered saline (pH 7.4) with 1% Tween-20 (TBS-T) with 5% milk and incubated in primary antibody overnight at 4° C. Following 3× for 5 min washes in TBS-T, the membrane was incubated with secondary antibodies for 1 hr. The membrane was washed again in TBST 3× for 5 min prior to visualization using enhanced chemiluminescence (ECL Western Blotting Substrate, Pierce). Antibody for cleaved caspase 3 (Cell Signaling Technology, #9661) was used at 1:1000 and detected using a Peroxidase AffiniPure Goat Anti-Rabbit IgG (H+L) (Jackson ImmunoResearch, 111-295-144) at 1:5000 dilution.
DNA damage is a potent inducer of apoptosis. […] Despite this, some quantity of 17-kDa cleaved caspase-3 was still detectable in the Z-VAD-FMK-treated sample. To further check for potential radiation-induced apoptosis in this model at a later time point, we attempted to rescue the effects of radiation using 100 μM Z-VAD-FMK after 48, 72, and 96 h (FIG. 10).
In general terms: A western blot detects proteins with antibodies after separation by electrophoresis.

Test [6] concerns models of glioma, melanoma, and breast cancer. Conditions: Cobler et al., 2018, Nagane et al., Sleire et al., 2015; cited from earlier work.

* marks the point of attachment. Cbz = O=C(OCc1ccccc1)*; CH2F = FC*

Regarding `Cn1cnc(N)c2ncnc1-2` [3-methyladenine], in the test with HT-1080 cells [1], the “Cell viability after radiation (ATP-based luciferase assay)” value was “also rescued cells”.
For `CNC(=O)c1cc(Oc2ccc(NC(=O)Nc3ccc(Cl)c(C(F)(F)F)c3)cc2)ccn1` [sorafenib], the “Tumor growth, combination with radiation vs all other groups” value in test [2] (6 Gy on day one) is on record as “significant tumor growth inhibition”. The “Tumor growth, drug alone vs vehicle only” value in test [2] is “significant tumor control”. The values for the CDI with radiation with HT-1080 cells [3] (2 Gy) and in the test with HT-1080 cells [3] (4 Gy) were 0.65 and 0.47, respectively. The “Tumor volume, sorafenib alone vs control” value in the test on HT-1080 xenograft tumors is “No difference was observed”. Moreover, in test [4] (40 mg/kg sorafenib i.p. 14 days), the “GSH in tumor tissue, sorafenib vs vehicle” value was “significantly lower GSH”. In test [4] (40 mg/kg sorafenib i.p. 14 days plus 6 Gy on days 1 and 3), the “GSH in tumor tissue, dual-treated” value is given as “further significant GSH depletion”. For the same compound, the “Levels of GSH, sorafenib plus radiation” value in test [5] was “significant depletion of GSH”.
In the case of `CN[C@@H]1C[C@H]2O[C@@](C)([C@@H]1OC)n1c3ccccc3c3c4c(c5c6ccccc6n2c5c31)C(=O)NC4` [staurosporine], in the test with HT-1080 cells [3], the “Enhancement of radiation effect on clonogenic survival” value is “only slightly enhancing radiation-induced cell death”, the “CDI with 4 Gy IR” value is on record as 0.83 and the “CDI with 2 Gy IR” value was 1.1. In addition, in the test with cleaved caspase-3 (HT-1080, IKE or RSL3 24 h, staurosporine 500 nM for 6 h), the “Cleavage of caspase-3, compound alone” value is reported as “induced cell death along with levels of caspase-3 cleavage”.
On to `Cc1c(C)c2c(c(C)c1O)CCC(C)(C(=O)O)O2` (stereo not drawn) [trolox], for which, in the test with HT-1080 cells [3], the “Colony formation after radiation alone” value was “partially rescued cell death induced by radiation alone”. Also, in the test on HT-1080 cells [3] (HT-1080, co-treatment with ferroptosis inhibitor), the “Synergy between IKE or RSL3 and radiation in colony formation” value is given as “suppress the synergy”.
As for `COC(=O)CNC(=O)[C@H](CS)NC(=O)CC[C@H](N)C(=O)O` [glutathione methyl ester], the “Colony formation after radiation alone” value in the test on HT-1080 cells [3] is “rescued”.
Consider Cbz-Val-Ala-Asp-CH2F, for which, in the test with HT-1080 cells [1] (HT-1080, 100 μM Z-VAD-FMK, 48, 72, and 96 h), the “Rescue of cell viability after radiation at later time points” value is recorded as “no significant rescue of cell viability”. Besides, the “Cell viability after radiation (ATP-based luciferase assay)” value in the test on HT-1080 cells [1] was “not”. In the test on cleaved caspase-3 (HT-1080, 500 nM staurosporine plus 100 μM Z-VAD-FMK), the Staurosporine-induced cell death entry is “rescued from staurosporine-induced cell death”.
Turning to `CN1C(=O)NC(Cc2c[nH]c3c(Cl)cccc23)C1=O` (stereo not drawn) [necrostatin-1S], in the test with HT-1080 cells [1], the “Cell viability after radiation (ATP-based luciferase assay)” value is listed as “not”.
For the compound `CC(=O)N[C@@H](CS)C(=O)O` [N-acetylcysteine], in the test on HT-1080 cells [3], the “Colony formation after radiation alone” value is “rescued”.
Take `COc1cccc2c1C(=O)c1c(O)c3c(c(O)c1C2=O)C[C@@](O)(C(=O)CO)C[C@@H]3O[C@H]1C[C@H](N)[C@H](O)[C@H](C)O1` [doxorubicin]: in the test with HT-1080 cells [3], the “Enhancement of radiation effect on clonogenic survival” value is recorded as “only slightly enhancing radiation-induced cell death”, the “CDI with 4 Gy IR” value is on record as 0.9 and the “CDI with 2 Gy IR” value is 1.07.
As to `CO[C@H]1C[C@@H]2CC[C@@H](C)[C@@](O)(O2)C(=O)C(=O)N2CCCC[C@H]2C(=O)O[C@H]([C@H](C)C[C@@H]2CC[C@@H](O)[C@H](OC)C2)CC(=O)[C@H](C)/C=C(\C)[C@@H](O)[C@@H](OC)C(=O)[C@H](C)C[C@H](C)/C=C/C=C/C=C/1C` [rapamycin], in the test on HT-1080 cells [3], the “CDI with 4 Gy IR” value turned out to be 0.62 and the “CDI with 2 Gy IR” value came to 0.89.
Turning to `O=C(O)c1cc(/N=N/c2ccc(S(=O)(=O)Nc3ccccn3)cc2)ccc1O` [sulfasalazine], in test [6], the “Potentiation of radiation (prior reports)” value was “potentiate radiation”.
